# Values of other authors as cited in patent publication US20220117942A1, “COMBINATION THERAPY FOR THE TREATMENT OF PROSTATE CANCER” (Zenith Epigenetics Ltd., priority 2018, published 2022).
# Tested on: 2nd line mCRPC patients
# Conditions: enzalutamide alone, comparison value
compound,measurement,value
CNC(=O)c1ccc(N2C(=S)N(c3ccc(C#N)c(C(F)(F)F)c3)C(=O)C2(C)C)cc1F [enzalutamide],expected rPFS,24-28 weeks
